Tests used:
[1] = pKa used to separate acids by titration; type: physicochemical
Procedure: 4-(2,3-Dimethoxyphenyl)but-3-enoic acid (5). Recrystallized paraconic acid 4 (8.6 g, 0.032 mol) was placed into a one-neck round bottom flask and the solid was heated in a 180° C. oil bath for 6 h. Carbon dioxide could be observed bubbling out of the dark brown liquid. The reaction was cooled to room temperature and dissolved in CH2Cl2. The product and any unreacted starting material were extracted into 2 N NaOH (3×100 mL). The pKa of the butenoic acid is approximately 4.2, whereas the pKa of the paraconic acid is approximately 3.6, so the two compounds were separated by titration. The basic aqueous extract was carefully acidified with 2 N HCl, with monitoring by a calibrated pH meter. Once the pH reached 4.5, the solution started becoming slightly cloudy. The solution pH was adjusted to 4.0 and the aqueous solution was extracted with CH2Cl2. After extraction the pH of the aqueous layer increased to around 5 and the titration was repeated until there was no cloudiness at pH 4.0. The starting material was recovered by acidifying to pH 3.0 and extracting with CH2Cl2. The initial organic extracts were dried over Na2SO4, and evaporated under reduced pressure to yield pure 5 that solidified under reduced pressure as a yellow solid (4.7 g, 0.021 mol, 65.2%) that was used without further purification; mp 84-86° C. […]

[2] = rodents and non-human primates; iv, sc, po; cited from earlier work
[3] = molecular target: D1 receptor (Homo sapiens, UniProt P21728); conditions: reported; cited from earlier work
[4] = molecular target: D2 receptor (Homo sapiens, UniProt P14416); conditions: reported; cited from earlier work
[5] = molecular target: D2-like receptor sites (Sus scrofa, UniProt A0ACM8QMZ9); assay: Competitive binding, porcine striatal tissue, [3H]-spiperone (50 nM ketanserine present); conditions: porcine striatal membranes; read-out: Kd for D2-like receptor sites (receptor isotherm)
Sequence of D2-like receptor sites (A0ACM8QMZ9 entry or part of it): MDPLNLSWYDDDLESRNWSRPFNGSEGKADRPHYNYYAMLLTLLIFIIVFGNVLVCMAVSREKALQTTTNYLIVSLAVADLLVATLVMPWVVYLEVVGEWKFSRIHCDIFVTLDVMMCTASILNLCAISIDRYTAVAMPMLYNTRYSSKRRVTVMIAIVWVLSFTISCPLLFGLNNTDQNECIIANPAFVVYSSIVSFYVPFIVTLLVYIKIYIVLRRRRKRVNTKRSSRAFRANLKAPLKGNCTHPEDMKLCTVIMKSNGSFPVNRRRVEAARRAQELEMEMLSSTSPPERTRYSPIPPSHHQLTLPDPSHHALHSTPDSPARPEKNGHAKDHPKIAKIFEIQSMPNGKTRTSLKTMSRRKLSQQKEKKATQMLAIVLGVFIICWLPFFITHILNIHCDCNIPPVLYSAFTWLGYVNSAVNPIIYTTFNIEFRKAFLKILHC
Procedure: Competitive Binding Experiments. Porcine striatal tissue is obtained from the Purdue Butcher Block and prepared as described in the literature. Striatal tissue is homogenized using a potter-type homogenizer, suspended in homogenization buffer (20 mM Hepes, 0.32 M sucrose, pH 7.4), and spun at 1,000 g for 10 minutes at 4° C. The pellet (P1) is discarded and supernatant is centrifuged at 30,000 g for 10 minutes at 4° C. The resultant pellet (P2) is resuspended in 50 mM Tris buffer (pH 7.4) by briefly using a Kinematica homogenizer, and then centrifuged at 30,000 g for 30 minutes at 4° C. This pellet is resuspended again in 50 mM Tris buffer, dispensed into 1 mL aliquots, and centrifuged for 10 min. at 13,000 g at 4° C. A BSA protein assay is used to determine the final weight of the pellets. Supernatant is aspirated and pellets are frozen at −80° C. until use.
Receptor and competitive binding experiments are performed as described in the literature. Pellets are resuspended (1 mL/mg) in receptor binding buffer (50 mM Hepes, 4 mM MgCl2, pH 7.4) and 75 μg protein is used per well. […] All binding experiments are incubated for 30 minutes at 37° C., and are terminated and counted in a similar fashion to the cAMP binding assays.
Data Analysis. […] Ki values are calculated from IC50 using the Cheng-Prusoff equation.

Sequence of D2 receptor (P14416 whole entry): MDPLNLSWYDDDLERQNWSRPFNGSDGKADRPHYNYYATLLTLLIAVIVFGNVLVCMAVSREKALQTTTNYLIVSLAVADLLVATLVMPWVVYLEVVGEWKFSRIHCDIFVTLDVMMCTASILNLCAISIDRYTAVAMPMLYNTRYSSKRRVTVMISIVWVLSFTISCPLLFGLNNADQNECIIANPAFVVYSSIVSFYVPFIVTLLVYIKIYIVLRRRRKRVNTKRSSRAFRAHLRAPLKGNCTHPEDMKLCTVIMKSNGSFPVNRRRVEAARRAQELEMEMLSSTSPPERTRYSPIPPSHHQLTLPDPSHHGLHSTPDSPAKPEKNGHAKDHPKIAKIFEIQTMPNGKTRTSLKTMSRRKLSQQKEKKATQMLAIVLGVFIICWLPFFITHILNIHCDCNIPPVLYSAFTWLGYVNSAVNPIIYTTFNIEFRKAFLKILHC
Sequence of D1 receptor (P21728 whole entry): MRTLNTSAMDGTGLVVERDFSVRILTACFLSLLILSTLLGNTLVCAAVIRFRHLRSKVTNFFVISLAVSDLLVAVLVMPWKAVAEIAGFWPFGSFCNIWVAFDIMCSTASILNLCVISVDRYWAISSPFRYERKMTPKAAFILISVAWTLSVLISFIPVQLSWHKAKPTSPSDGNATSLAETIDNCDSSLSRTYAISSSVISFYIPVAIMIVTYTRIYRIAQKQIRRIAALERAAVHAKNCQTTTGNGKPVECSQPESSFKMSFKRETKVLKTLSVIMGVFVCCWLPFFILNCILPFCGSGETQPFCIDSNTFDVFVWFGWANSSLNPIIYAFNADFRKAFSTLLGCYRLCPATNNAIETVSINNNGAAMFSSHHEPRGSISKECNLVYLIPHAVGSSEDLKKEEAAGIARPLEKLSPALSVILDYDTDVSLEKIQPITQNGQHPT

| Structure (SMILES) | pKa [1] | melting point [°C] | further results |
| --- | --- | --- | --- |
| COc1cccc(C=CCC(=O)O)c1OC [Compound 5, 4-(2,3-Dimethoxyphenyl)but-3-enoic acid] | ~4.2 | – | – |
| Cl.Oc1cc2c(cc1O)[C@@H]1c3ccccc3CN[C@H]1CC2 (racemic) [dihydrexidine, (±)-trans-10,11-dihydroxy-5,6,6a,7,8,12b-hexahydrobenzo[a]phenanthridine hydrochloride] | – | – | plasma clearance [2]: cleared rapidly from plasma; affinity for the D1 receptor [3]: 2.2 nM; affinity for the D2 receptor [4]: 183 nM |
| COc1cccc(C2OC(=O)CC2C(=O)O)c1OC (centres unmarked) [Compound 4, 2-(2,3-Dimethoxyphenyl)-5-oxo-tetrahydrofuran-3-carboxylic acid] | ~3.6 | – | – |
| Br.Oc1ccc2c(c1O)CC[C@H]1CCNC[C@H]21 (relative stereo) [Compound 2, Trans-1,2,3,4,4a,5,6,10b-octahydrobenzo[h]isoquinoline-7,8-diol HBr] | – | > 250 | – |
| O=C(CCCN1CCC2(CC1)C(=O)NCN2c1ccccc1)c1ccc(F)cc1 [[3H]-spiperone] | – | – | Kd [5]: 0.075 nM |
| Br.Oc1ccc2c(c1O)CC(c1ccccc1)C1CCNCC21 (centres unmarked) [Compound 3, 5-Phenyl-1,2,3,4,4a,5,6,10b-octahydrobenzo[h]isoquinoline-7,8-diol HBr] | – | > 250 | – |
